# Values quoted from earlier work in article PMC2757550 (Bioconjugate chemistry, 2009).
# Tested on: mouse vas deferens preparation
substance,measurement,value
Dmt-Tic-Glu-NH(CH2)5NH-fluorescein,removal from preparation by extensive washing (in words),cannot be removed from the mouse vas deferens preparation by extensive washing
